Measurements as given in patent US20070185013A1, “Use of chk1 inhibitors to control cell proliferation” (ICOS CORPORATION, priority 2003, published 2007).
“Also recorded” adds a separate entry of the source.

Columns and labels:
[1] = system: HT29 tumors; experiment: Rb-Pser795 S phase marker staining of HT29 tumors; format: in vivo, mice; details: 100 mg/kg gemcitabine i.p., 1 to 72 hr
Text: To confirm that low H3-P staining corresponds to S phase arrest, tumors were also stained with an S phase marker, phosphorylated Rb-Pser795. Tumor slices taken in the experiment above were stained with the Rb-Pser795 antibody (Cell Signaling Cat# 9301S) and the number of positive staining cells quantified.

[2] = system: Chk1; experiment: Chk1 serine 296 phosphorylation, Western blot in HT29 cells; format: cell-based, human; details: HT29 cells, 20 μM gemcitabine for two hours, 22 additional hours
Description: Phosphorylation at this site is not inhibited by Wortinannin, which inhibits Atm and Atr. Therefore the phosphorylation of serine 296 is distinct from phosphorylation at serines 317 and 345 described in Example 12. […] Therefore, this approach may be used to monitor Chk1 activity in tumors in response to Chk1 activators. Further, this approach may be used to measure inhibition of Chk1 activation by Chk1 inhibitors.
Thus, HT 29 cells were treated with 20 μM gemcitabine for two hours. The gemcitabine was washed out of the cell growth media and cells were incubated for 22 additional hours. Protein lysates were prepared and separated by an SDS-polyacrylamide gel electrophoresis. Proteins were transferred to polyvinylidene fluoride (PVDF) membranes and probed with antisera (Cell Signalling) specific for phosphorlyated serine 296 (Cell Signalling). […] Further, HT29 cells treated with selective Chk1 inhibitors for 15 minutes show no serine 296 phosphorylation.

[3] = system: Chk1; experiment: Chk1 serine 317 and 345 phosphorylation, Western blot in HT29 cells; format: cell-based, human; details: 20 μM gemcitabine for two hours, 22 additional hours
Text: To determine whether an agent is a Chk1 activator, the phosphorylation state of Chk1 can be measured using phospho-specific antibodies to specific phosphorylation sites on Chk1. […] Liu, Q., et al., (2000) Genes Dev. 14, 1448-1459; Zhao, H., et al., (2001) Mol. Cell. Biol. 21, 4129-4139; Lopez-Girona, A., et al., (2001) Proc. Natl. Acad. Sci. U.S.A. 98, 11289-11294; Guo, Z., et al., (2000). Genes Dev. 14, 2745-2756; Gatei, M., et al., (2003) J. Biol. Chem. 278, 14806-14811; Ng C P, et al., J Biol Chem. 2004 Mar. 5; 279(10):8808-19; Wang Y, et al., Natl Acad Sci USA. 2003 Dec. 23; 100(26):15387-92; Stojic L, et al., Genes Dev. 2004 Jun. 1; 18(11):1331-44. These serine sites are phosphorylated by upstream checkpoint kinases, Atm and Atr. Liu, Q., et al., S. J. (2000) Genes Dev. 14, 1448-1459; Zhao, H., et al. (2001) Mol. Cell. Biol. 21, 4129-4139).
The phosphorylation of these sites in response to a candidate Chk1 activator can be monitored by Western blot or immunohistochemistry of tumor cells. […] HT29 cells were treated with 20 μM gemcitabine for two hours. The gemcitabine was washed out of the cell growth media and cells were incubated for 22 additional hours. Protein lysates were prepared and separated by an SDS-polyacrylamide gel electrophoresis. […]

[4] = system: 137-62 tumors; experiment: H3-P staining in 137-62 tumors after gemcitabine; format: in vivo, rat
Description: (§1) Chem. 271:13197-201. 1996; Goto et al., J Biol Chem. 274:25543-9, 1999). The assay protocol was as follows. Tumors from rodents treated or untreated with Chk1 activator (in the present study, chemotherapy agent) and/or Chk1 inhibitor, were excised and paraffin embedded. The tumors are cut into 6 micron thick slices and mounted on glass slides. […] The slides are then heated to 95° C. in 10 mM sodium citrate for 10 minutes followed by a 20 minute cooling step. The slides are blocked for 30 minutes with Block buffer (20% normal human serum and 2% bovine serum albumin in phosphate buffered saline containing 0.05% Triton X-100 (PBST)). The anti-phospho histone H3 antibody (Upstate Biotech, Cat. #06-570) is diluted 1:200 in the Block buffer and incubated with the slides for one hour. The slides are washed 3 times 5 minutes in PBST. The secondary antibody, donkey anti-rabbit rhodamine (Jackson, cat #711-295-152) was added for 30 minutes. The slides were then washed twice in PBST and […] of […] DAPI (Sigma) in PBS is added and allowed to stain for 30 minutes. The slides were then washed two more times in PBST and mounted with Vectashield (Vector, cat # H-1400). Slides were viewed using fluorescence microscopy. The percentage of cells stained with H3-P antibody relative to total (DAPI stained) cells were quantified using Metamorph software (Universal Imaging Corporation, Version 4.6). […]

[5] = system: tumor cells; experiment: Cell-based proliferation (sensitization) assay (Example 2); details: ratio of GI90 of the chemotherapy agent in absence to that in presence of Chk1 inhibitor
Description: Chk1 inhibitors were tested in a cell-based proliferation assay for the ability to sensitize tumor cells to ionizing radiation or chemotherapy agents. Chk1 inhibitors were tested in combination with 5-FU, gemicitabine, ionizing radiation, camptothecin, etoposide, hydroxyurea, cisplatin, fludarabine, Ara-C and aphidicolin. For each experiment, a serial dilution of each compound in combination with a ten-point dilution of each chemotherapy agent was included, in order to determine the concentration of chemotherapeutic required to inhibit the growth of 90% (GI90) of the cells in the presence and absence of the Chk1 inhibitor. This ratio of GI90 in the absence of Chk1 inhibitor to that in the presence of Chk1 inhibitor is called the “fold sensitization.” Fold sensitization was plotted as a function of Chk1 inhibitor concentration and the amount of drug required to yield two-fold sensitization was calculated. […] Another parameter analyzed was the fold sensitization achieved at the LD50 (the dose of compound alone that inhibits growth of 50% of cells) for the compound. These two values allow direct ranking of both the potency and toxicity of Chk1 inhibitors with respect to one another.

[6] = system: H460 tumors; experiment: H3-P staining in H460 tumors after gemcitabine; format: in vivo, rodent
Description: as §1

With Nc1ccn([C@@H]2O[C@H](CO)[C@@H](O)C2(F)F)c(=O)n1 [gemcitabine] the Rb-P staining cells [1] was “more Rb-P staining cells at, 24, 48 and 72 hours than at earlier timepoints”, the “phosphorylation of Chk1 serine 296” value [2] was “stimulated; also recorded: results in the phosphorylation of serine 296” and the “phosphorylation of Chk1 serines 317 and 345” value [3] was “results in the phosphorylation of both serines 317 and 345”. The “time at which cells exited S phase arrest” value ([4]; 137-62 cells, after gemcitabine) was 24 h, the “time of lowest H3-P staining” value ([4]; 137-62 tumors treated with gemcitabine) was 12 h and the “Fold Sensitization to Agent by Chk1 Inhibitor” value [5] was 12 fold. For the same compound, the “time at which cells exited S phase arrest” value ([6]; H460 cells, after gemcitabine) was 48 h and the “time of lowest H3-P staining” value ([6]; H460 tumors treated with gemcitabine) was 12 h.
